In the kinase profiling compilation of Christmann-Franck et al. (2016):
pKd: −log10 of the molar value.

Key:
Test in all cases: KINOMEscan competition binding
AAK1 (human) = AAK1 (human) (UniProt Q2M2I8)
ACVRL1 (human) = ACVRL1 (human) (UniProt P37023)
AKT3 (human) = AKT3 (human) (UniProt Q9Y243)
BMPR1B (human) = BMPR1B (human) (UniProt O00238)
BRAF (human) = BRAF (human) (UniProt P15056); settings: compound 1.0 µM
CAMK4 (human) = CAMK4 (human) (UniProt Q16566)
CDK11B (human) = CDK11B (human) (UniProt P21127)
CDK5 (human) = CDK5 (human) (UniProt Q00535)
DCLK2 (human) = DCLK2 (human) (UniProt Q8N568)
DYRK1B (human) = DYRK1B (human) (UniProt Q9Y463)
EIF2AK2 (human) = EIF2AK2 (human) (UniProt P19525)
EPHA1 (human) = EPHA1 (human) (UniProt P21709)
EPHA7 (human) = EPHA7 (human) (UniProt Q15375)
EPHA8 (human) = EPHA8 (human) (UniProt P29322)
EPHB2 (human) = EPHB2 (human) (UniProt P29323)
EPHB4 (human) = EPHB4 (human) (UniProt P54760)
FGFR2 (human) = FGFR2 (human) (UniProt P21802)
[1] = test system: FLT3 (human), P36888 [D835H]
HCK (human) = HCK (human) (UniProt P08631)
HIPK3 (human) = HIPK3 (human) (UniProt Q9H422)
ITK (human) = ITK (human) (UniProt Q08881)
[2] = molecular target: JAK1 JH2 pseudokinase (human) (UniProt P23458)
KDR (human) = KDR (human) (UniProt P35968)
KIT (human) = KIT (human) (UniProt P10721)
[3] = test system: KIT (human), P10721 [D816H]
[4] = test system: KIT (human), P10721 [V559D/V654A]
MAP3K4 (human) = MAP3K4 (human) (UniProt Q9Y6R4)
MAP3K7 (human) = MAP3K7 (human) (UniProt O43318)
MAP4K2 (human) = MAP4K2 (human) (UniProt Q12851)
MAPK15 (human) = MAPK15 (human) (UniProt Q8TD08)
MINK1 (human) = MINK1 (human) (UniProt Q8N4C8)
MKNK1 (human) = MKNK1 (human) (UniProt Q9BUB5)
MUSK (human) = MUSK (human) (UniProt O15146)
MYLK3 (human) = MYLK3 (human) (UniProt Q32MK0)
NEK5 (human) = NEK5 (human) (UniProt Q6P3R8)
PDGFRA (human) = PDGFRA (human) (UniProt P16234)
[5] = test system: PIK3CA (human), P42336 [M1043I]
PIM1 (human) = PIM1 (human) (UniProt P11309)
PKN3 (M.tuberculosis) = PKN3 (M.tuberculosis) (UniProt Q6P5Z2)
PRKG2 (human) = PRKG2 (human) (UniProt Q13237)
RPS6KA6 KD1 (human) = RPS6KA6 KD1 (human) (UniProt Q9UK32)
SRMS (human) = SRMS (human) (UniProt Q9H3Y6)
STK33 (human) = STK33 (human) (UniProt Q9BYT3)

EPHA1 (human), sequence (P21709 whole entry, looked up): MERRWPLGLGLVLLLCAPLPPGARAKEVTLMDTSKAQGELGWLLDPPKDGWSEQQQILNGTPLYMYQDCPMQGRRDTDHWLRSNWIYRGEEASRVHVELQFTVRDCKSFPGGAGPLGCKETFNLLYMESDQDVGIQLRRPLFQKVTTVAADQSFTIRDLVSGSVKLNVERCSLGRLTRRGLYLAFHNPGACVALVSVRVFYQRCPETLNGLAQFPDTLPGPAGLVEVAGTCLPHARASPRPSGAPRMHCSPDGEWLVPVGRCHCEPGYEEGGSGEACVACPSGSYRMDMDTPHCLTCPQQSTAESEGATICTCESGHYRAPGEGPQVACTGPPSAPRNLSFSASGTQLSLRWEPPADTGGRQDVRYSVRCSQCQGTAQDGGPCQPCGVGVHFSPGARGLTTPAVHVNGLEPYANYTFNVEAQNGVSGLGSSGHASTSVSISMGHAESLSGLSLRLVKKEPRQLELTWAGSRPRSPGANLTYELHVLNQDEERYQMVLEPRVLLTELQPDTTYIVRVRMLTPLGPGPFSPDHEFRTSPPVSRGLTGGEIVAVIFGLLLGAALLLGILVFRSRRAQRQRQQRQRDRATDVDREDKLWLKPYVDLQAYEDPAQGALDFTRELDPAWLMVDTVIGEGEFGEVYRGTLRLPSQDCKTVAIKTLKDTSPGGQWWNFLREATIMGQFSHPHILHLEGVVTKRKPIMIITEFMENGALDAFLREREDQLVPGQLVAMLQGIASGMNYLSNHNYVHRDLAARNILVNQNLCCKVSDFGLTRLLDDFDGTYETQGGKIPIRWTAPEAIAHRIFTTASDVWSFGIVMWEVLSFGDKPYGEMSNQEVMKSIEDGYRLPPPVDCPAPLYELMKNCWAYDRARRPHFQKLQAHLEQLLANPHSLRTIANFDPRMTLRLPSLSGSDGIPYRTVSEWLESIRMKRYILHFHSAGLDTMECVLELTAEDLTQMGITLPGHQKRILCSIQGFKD
RPS6KA6 KD1 (human), sequence (Q9UK32 whole entry, looked up): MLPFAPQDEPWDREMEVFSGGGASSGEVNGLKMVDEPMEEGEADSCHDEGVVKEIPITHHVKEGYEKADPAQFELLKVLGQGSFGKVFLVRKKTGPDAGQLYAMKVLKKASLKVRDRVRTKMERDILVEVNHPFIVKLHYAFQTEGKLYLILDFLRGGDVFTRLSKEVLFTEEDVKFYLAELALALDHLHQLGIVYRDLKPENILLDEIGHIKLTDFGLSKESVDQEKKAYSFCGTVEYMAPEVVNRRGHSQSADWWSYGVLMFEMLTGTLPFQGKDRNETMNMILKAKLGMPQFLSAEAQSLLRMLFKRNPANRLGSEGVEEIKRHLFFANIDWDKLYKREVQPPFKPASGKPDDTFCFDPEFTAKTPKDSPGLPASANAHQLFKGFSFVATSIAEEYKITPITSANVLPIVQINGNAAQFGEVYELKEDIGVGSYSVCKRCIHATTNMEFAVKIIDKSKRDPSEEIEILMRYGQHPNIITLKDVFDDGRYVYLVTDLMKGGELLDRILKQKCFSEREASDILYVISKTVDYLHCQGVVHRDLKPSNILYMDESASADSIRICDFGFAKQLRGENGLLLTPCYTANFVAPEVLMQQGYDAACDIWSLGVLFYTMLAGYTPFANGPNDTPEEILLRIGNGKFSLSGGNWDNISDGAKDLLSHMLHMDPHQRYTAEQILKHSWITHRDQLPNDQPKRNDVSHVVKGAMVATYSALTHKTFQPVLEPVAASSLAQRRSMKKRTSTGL
HIPK3 (human), sequence (Q9H422 whole entry, looked up): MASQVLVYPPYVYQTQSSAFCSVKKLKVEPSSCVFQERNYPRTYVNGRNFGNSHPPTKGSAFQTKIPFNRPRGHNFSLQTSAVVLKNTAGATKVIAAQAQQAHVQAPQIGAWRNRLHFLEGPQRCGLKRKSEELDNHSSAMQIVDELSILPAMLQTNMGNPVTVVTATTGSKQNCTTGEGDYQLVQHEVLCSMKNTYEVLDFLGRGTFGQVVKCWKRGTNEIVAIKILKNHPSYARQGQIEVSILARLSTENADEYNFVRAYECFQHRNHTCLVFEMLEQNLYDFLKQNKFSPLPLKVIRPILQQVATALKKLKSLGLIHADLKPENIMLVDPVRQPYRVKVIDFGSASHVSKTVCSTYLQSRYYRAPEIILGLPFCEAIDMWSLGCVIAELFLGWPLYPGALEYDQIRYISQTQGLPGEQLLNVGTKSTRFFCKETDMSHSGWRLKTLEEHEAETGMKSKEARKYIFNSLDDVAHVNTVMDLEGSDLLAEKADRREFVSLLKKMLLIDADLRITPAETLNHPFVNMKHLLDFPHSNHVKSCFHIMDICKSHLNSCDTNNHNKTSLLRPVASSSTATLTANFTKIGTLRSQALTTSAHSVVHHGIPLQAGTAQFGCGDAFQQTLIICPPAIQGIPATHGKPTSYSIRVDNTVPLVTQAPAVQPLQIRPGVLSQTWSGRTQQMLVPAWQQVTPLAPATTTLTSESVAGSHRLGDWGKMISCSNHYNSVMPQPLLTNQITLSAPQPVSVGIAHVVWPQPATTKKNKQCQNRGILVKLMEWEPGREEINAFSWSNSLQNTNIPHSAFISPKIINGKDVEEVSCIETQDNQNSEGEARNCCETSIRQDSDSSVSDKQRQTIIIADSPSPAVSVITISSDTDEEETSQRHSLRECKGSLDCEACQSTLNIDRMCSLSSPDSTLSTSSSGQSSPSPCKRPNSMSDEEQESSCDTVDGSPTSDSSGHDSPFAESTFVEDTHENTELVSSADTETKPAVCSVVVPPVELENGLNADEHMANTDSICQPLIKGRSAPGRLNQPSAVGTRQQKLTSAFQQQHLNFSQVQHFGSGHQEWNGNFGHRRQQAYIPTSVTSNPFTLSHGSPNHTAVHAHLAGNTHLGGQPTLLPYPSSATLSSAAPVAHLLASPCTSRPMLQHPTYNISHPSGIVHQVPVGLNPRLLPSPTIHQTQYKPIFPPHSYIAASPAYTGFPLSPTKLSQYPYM
JAK1 JH2 pseudokinase (human), sequence (P23458 whole entry, looked up): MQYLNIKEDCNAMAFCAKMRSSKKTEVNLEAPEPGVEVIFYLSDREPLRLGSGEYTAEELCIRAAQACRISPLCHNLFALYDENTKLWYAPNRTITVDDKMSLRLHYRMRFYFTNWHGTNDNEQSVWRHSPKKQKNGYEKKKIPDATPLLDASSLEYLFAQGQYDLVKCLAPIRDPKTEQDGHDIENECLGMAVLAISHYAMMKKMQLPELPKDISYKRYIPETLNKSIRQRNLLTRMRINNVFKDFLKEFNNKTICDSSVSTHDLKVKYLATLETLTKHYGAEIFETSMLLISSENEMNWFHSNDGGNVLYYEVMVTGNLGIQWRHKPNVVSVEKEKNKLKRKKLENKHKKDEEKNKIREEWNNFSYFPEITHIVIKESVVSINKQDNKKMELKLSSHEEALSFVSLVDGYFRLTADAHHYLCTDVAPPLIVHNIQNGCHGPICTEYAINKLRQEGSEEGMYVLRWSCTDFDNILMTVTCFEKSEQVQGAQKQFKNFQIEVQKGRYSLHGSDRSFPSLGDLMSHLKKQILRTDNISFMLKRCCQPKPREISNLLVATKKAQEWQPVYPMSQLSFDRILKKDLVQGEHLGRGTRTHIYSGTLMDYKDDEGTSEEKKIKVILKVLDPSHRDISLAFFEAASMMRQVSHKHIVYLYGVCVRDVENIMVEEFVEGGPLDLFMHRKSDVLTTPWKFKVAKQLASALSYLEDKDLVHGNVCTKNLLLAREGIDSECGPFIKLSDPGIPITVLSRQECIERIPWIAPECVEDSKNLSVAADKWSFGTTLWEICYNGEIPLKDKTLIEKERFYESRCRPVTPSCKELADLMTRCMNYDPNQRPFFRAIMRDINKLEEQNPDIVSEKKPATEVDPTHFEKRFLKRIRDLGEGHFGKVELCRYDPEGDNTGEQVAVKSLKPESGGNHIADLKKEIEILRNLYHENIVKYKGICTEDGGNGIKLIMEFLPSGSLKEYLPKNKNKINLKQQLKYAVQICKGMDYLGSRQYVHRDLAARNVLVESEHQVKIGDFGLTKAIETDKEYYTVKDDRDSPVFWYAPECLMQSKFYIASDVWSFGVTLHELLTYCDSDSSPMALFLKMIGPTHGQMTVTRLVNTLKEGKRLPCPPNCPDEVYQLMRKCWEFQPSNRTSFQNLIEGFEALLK
ITK (human), sequence (Q08881 whole entry, looked up): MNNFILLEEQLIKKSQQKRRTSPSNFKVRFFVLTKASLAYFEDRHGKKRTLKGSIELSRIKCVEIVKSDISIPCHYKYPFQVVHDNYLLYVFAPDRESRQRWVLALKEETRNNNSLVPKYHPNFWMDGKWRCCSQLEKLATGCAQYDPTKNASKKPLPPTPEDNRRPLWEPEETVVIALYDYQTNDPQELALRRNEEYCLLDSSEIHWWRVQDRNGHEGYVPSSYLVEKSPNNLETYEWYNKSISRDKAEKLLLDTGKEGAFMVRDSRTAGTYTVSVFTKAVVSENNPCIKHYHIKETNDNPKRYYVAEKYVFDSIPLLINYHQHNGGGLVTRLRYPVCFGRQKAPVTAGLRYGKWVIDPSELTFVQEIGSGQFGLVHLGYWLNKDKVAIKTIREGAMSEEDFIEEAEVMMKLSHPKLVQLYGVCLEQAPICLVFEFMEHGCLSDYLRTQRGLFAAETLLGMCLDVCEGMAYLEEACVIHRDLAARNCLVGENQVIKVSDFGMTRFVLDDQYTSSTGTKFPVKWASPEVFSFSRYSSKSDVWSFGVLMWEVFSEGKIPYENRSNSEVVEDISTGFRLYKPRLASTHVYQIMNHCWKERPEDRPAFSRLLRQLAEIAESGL
CDK5 (human), sequence (Q00535 whole entry, looked up): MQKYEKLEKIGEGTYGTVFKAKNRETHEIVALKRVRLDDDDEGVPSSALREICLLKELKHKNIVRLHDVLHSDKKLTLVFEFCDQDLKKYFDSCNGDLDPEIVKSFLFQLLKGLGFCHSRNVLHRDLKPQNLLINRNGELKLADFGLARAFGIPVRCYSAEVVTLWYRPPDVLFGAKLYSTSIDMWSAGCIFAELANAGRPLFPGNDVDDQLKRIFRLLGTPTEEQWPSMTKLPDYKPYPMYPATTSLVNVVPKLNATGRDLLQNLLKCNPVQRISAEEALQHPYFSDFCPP

CN(C)C/C=C/C(=O)Nc1cccc(C(=O)Nc2ccc(Nc3nccc(-c4c(-c5ccccc5)nn5ccccc45)n3)cc2)c1
kinase still bound, per cent of control (AAK1 (human); compound 1.0 µM): 100% | kinase still bound, per cent of control (ACVRL1 (human); compound 1.0 µM): 22% | kinase still bound, per cent of control (AKT3 (human); compound 1.0 µM): 80% | kinase still bound, per cent of control (BMPR1B (human); compound 1.0 µM): 47% | kinase still bound, per cent of control (BRAF (human)): 43% | kinase still bound, per cent of control (CAMK4 (human); compound 1.0 µM): 100% | kinase still bound, per cent of control (CDK11B (human); compound 1.0 µM): 43% | kinase still bound, per cent of control (CDK5 (human); compound 1.0 µM): 100% | kinase still bound, per cent of control (DCLK2 (human); compound 1.0 µM): 100% | kinase still bound, per cent of control (DYRK1B (human); compound 1.0 µM): 100% | kinase still bound, per cent of control (EIF2AK2 (human); compound 1.0 µM): 92% | kinase still bound, per cent of control (EPHA1 (human); compound 1.0 µM): 38% | kinase still bound, per cent of control (EPHA7 (human); compound 1.0 µM): 100% | kinase still bound, per cent of control (EPHA8 (human); compound 1.0 µM): 39% | kinase still bound, per cent of control (EPHB2 (human); compound 1.0 µM): 67% | kinase still bound, per cent of control (EPHB4 (human); compound 1.0 µM): 43% | kinase still bound, per cent of control (FGFR2 (human); compound 1.0 µM): 49% | kinase still bound, per cent of control ([1]; compound 1.0 µM): 13% | kinase still bound, per cent of control (HCK (human); compound 1.0 µM): 23% | kinase still bound, per cent of control (HIPK3 (human); compound 1.0 µM): 100% | kinase still bound, per cent of control (ITK (human); compound 1.0 µM): 100% | kinase still bound, per cent of control ([2]; compound 1.0 µM): 79% | kinase still bound, per cent of control (KDR (human); compound 1.0 µM): 17% | kinase still bound, per cent of control (KIT (human); compound 1.0 µM): 0.15% | kinase still bound, per cent of control ([3]; compound 1.0 µM): 86% | kinase still bound, per cent of control ([4]; compound 1.0 µM): 49% | kinase still bound, per cent of control (MAP3K4 (human); compound 1.0 µM): 80% | kinase still bound, per cent of control (MAP3K7 (human); compound 1.0 µM): 47% | kinase still bound, per cent of control (MAP4K2 (human); compound 1.0 µM): 90% | kinase still bound, per cent of control (MAPK15 (human); compound 1.0 µM): 93% | kinase still bound, per cent of control (MINK1 (human); compound 1.0 µM): 46% | kinase still bound, per cent of control (MKNK1 (human); compound 1.0 µM): 96% | kinase still bound, per cent of control (MUSK (human); compound 1.0 µM): 100% | kinase still bound, per cent of control (MYLK3 (human); compound 1.0 µM): 91% | kinase still bound, per cent of control (NEK5 (human); compound 1.0 µM): 98% | kinase still bound, per cent of control (PDGFRA (human); compound 1.0 µM): 4.4% | kinase still bound, per cent of control ([5]; compound 1.0 µM): 100% | kinase still bound, per cent of control (PIM1 (human); compound 1.0 µM): 84% | kinase still bound, per cent of control (PKN3 (M.tuberculosis); compound 1.0 µM): 100% | kinase still bound, per cent of control (PRKG2 (human); compound 1.0 µM): 83% | kinase still bound, per cent of control (RPS6KA6 KD1 (human); compound 1.0 µM): 91% | kinase still bound, per cent of control (SRMS (human); compound 1.0 µM): 87% | kinase still bound, per cent of control (STK33 (human); compound 1.0 µM): 91%

CN(C)C/C=C/C(=O)Nc1cccc(C(=O)Nc2ccc(Nc3nccc(/C(C#N)=C4\Nc5ccccc5S4)n3)cc2)c1
kinase still bound, per cent of control (AAK1 (human); compound 1.0 µM): 100% | kinase still bound, per cent of control (ACVRL1 (human); compound 1.0 µM): 100% | kinase still bound, per cent of control (AKT3 (human); compound 1.0 µM): 100% | kinase still bound, per cent of control (BMPR1B (human); compound 1.0 µM): 100% | kinase still bound, per cent of control (CAMK4 (human); compound 1.0 µM): 100% | kinase still bound, per cent of control (CDK11B (human); compound 1.0 µM): 70% | kinase still bound, per cent of control (CDK5 (human); compound 1.0 µM): 100% | kinase still bound, per cent of control (DCLK2 (human); compound 1.0 µM): 100% | kinase still bound, per cent of control (DYRK1B (human); compound 1.0 µM): 66% | kinase still bound, per cent of control (EIF2AK2 (human); compound 1.0 µM): 100% | kinase still bound, per cent of control (EPHA1 (human); compound 1.0 µM): 89% | kinase still bound, per cent of control (EPHA7 (human); compound 1.0 µM): 100% | kinase still bound, per cent of control (EPHA8 (human); compound 1.0 µM): 100% | kinase still bound, per cent of control (EPHB2 (human); compound 1.0 µM): 77% | kinase still bound, per cent of control (EPHB4 (human); compound 1.0 µM): 100% | kinase still bound, per cent of control (FGFR2 (human); compound 1.0 µM): 100% | kinase still bound, per cent of control ([1]; compound 1.0 µM): 62% | kinase still bound, per cent of control (HCK (human); compound 1.0 µM): 100% | kinase still bound, per cent of control (HIPK3 (human); compound 1.0 µM): 85% | kinase still bound, per cent of control (ITK (human); compound 1.0 µM): 85% | kinase still bound, per cent of control ([2]; compound 1.0 µM): 81% | kinase still bound, per cent of control (KDR (human); compound 1.0 µM): 55% | kinase still bound, per cent of control (KIT (human); compound 1.0 µM): 12% | kinase still bound, per cent of control ([3]; compound 1.0 µM): 100% | kinase still bound, per cent of control ([4]; compound 1.0 µM): 100% | kinase still bound, per cent of control (MAP3K4 (human); compound 1.0 µM): 100% | kinase still bound, per cent of control (MAP3K7 (human); compound 1.0 µM): 58% | kinase still bound, per cent of control (MAP4K2 (human); compound 1.0 µM): 100% | kinase still bound, per cent of control (MAPK15 (human); compound 1.0 µM): 76% | kinase still bound, per cent of control (MINK1 (human); compound 1.0 µM): 100% | kinase still bound, per cent of control (MKNK1 (human); compound 1.0 µM): 100% | kinase still bound, per cent of control (MUSK (human); compound 1.0 µM): 70% | kinase still bound, per cent of control (MYLK3 (human); compound 1.0 µM): 100% | kinase still bound, per cent of control (NEK5 (human); compound 1.0 µM): 100% | kinase still bound, per cent of control (PDGFRA (human); compound 1.0 µM): 100% | kinase still bound, per cent of control ([5]; compound 1.0 µM): 100% | kinase still bound, per cent of control (PIM1 (human); compound 1.0 µM): 100% | kinase still bound, per cent of control (PKN3 (M.tuberculosis); compound 1.0 µM): 53% | kinase still bound, per cent of control (PRKG2 (human); compound 1.0 µM): 100% | kinase still bound, per cent of control (RPS6KA6 KD1 (human); compound 1.0 µM): 100% | kinase still bound, per cent of control (SRMS (human); compound 1.0 µM): 100% | kinase still bound, per cent of control (STK33 (human); compound 1.0 µM): 100%

Cc1ccc(NC(=O)c2ccc(NC(=O)/C=C/CN(C)C)cc2)cc1Nc1nccc(-c2cccnc2)n1
kinase still bound, per cent of control (AAK1 (human); compound 10.0 µM): 63% | kinase still bound, per cent of control (ACVRL1 (human); compound 10.0 µM): 100% | kinase still bound, per cent of control (AKT3 (human); compound 10.0 µM): 100% | kinase still bound, per cent of control (BMPR1B (human); compound 10.0 µM): 79% | kinase still bound, per cent of control (CAMK4 (human); compound 10.0 µM): 100% | kinase still bound, per cent of control (CDK11B (human); compound 10.0 µM): 100% | kinase still bound, per cent of control (CDK5 (human); compound 10.0 µM): 100% | kinase still bound, per cent of control (DCLK2 (human); compound 10.0 µM): 100% | kinase still bound, per cent of control (DYRK1B (human); compound 10.0 µM): 68% | kinase still bound, per cent of control (EIF2AK2 (human); compound 10.0 µM): 100% | kinase still bound, per cent of control (EPHA1 (human); compound 10.0 µM): 91% | kinase still bound, per cent of control (EPHA7 (human); compound 10.0 µM): 99% | kinase still bound, per cent of control (EPHA8 (human); compound 10.0 µM): 81% | kinase still bound, per cent of control (EPHB2 (human); compound 10.0 µM): 100% | kinase still bound, per cent of control (EPHB4 (human); compound 10.0 µM): 100% | kinase still bound, per cent of control (FGFR2 (human); compound 10.0 µM): 100% | kinase still bound, per cent of control ([1]; compound 10.0 µM): 66% | kinase still bound, per cent of control (HCK (human); compound 10.0 µM): 89% | kinase still bound, per cent of control (HIPK3 (human); compound 10.0 µM): 35% | kinase still bound, per cent of control (ITK (human); compound 10.0 µM): 100% | kinase still bound, per cent of control ([2]; compound 10.0 µM): 5.1% | kinase still bound, per cent of control (KDR (human); compound 10.0 µM): 85% | pKd (KIT (human)): 7.52 | kinase still bound, per cent of control (KIT (human); compound 10.0 µM): 0% | kinase still bound, per cent of control ([3]; compound 10.0 µM): 29% | kinase still bound, per cent of control ([4]; compound 10.0 µM): 3.4% | kinase still bound, per cent of control (MAP3K4 (human); compound 10.0 µM): 100% | kinase still bound, per cent of control (MAP3K7 (human); compound 10.0 µM): 61% | kinase still bound, per cent of control (MAP4K2 (human); compound 10.0 µM): 81% | kinase still bound, per cent of control (MAPK15 (human); compound 10.0 µM): 100% | kinase still bound, per cent of control (MINK1 (human); compound 10.0 µM): 64% | kinase still bound, per cent of control (MKNK1 (human); compound 10.0 µM): 88% | kinase still bound, per cent of control (MUSK (human); compound 10.0 µM): 99% | kinase still bound, per cent of control (MYLK3 (human); compound 10.0 µM): 97% | kinase still bound, per cent of control (NEK5 (human); compound 10.0 µM): 51% | kinase still bound, per cent of control (PDGFRA (human); compound 10.0 µM): 0.4% | kinase still bound, per cent of control ([5]; compound 10.0 µM): 100% | kinase still bound, per cent of control (PIM1 (human); compound 10.0 µM): 69% | kinase still bound, per cent of control (PKN3 (M.tuberculosis); compound 10.0 µM): 86% | kinase still bound, per cent of control (PRKG2 (human); compound 10.0 µM): 74% | kinase still bound, per cent of control (RPS6KA6 KD1 (human); compound 10.0 µM): 50% | kinase still bound, per cent of control (SRMS (human); compound 10.0 µM): 71% | kinase still bound, per cent of control (STK33 (human); compound 10.0 µM): 97%
